Assay results reported in patent US12486269B2 (Aconcagua Bio, Inc., priority 2024, dated 2025).
pEC50: −log10 of the molar value.

Columns and labels:
[1] = target: T1, COS-7/AMY3 (human calcitonin receptor (CTR) and RAMP3) (Homo sapiens, UniProt O60896+P30988); test: Amylin Receptor cAMP Assay II; format: cell-based; settings: values marked **: Amylin Receptor cAMP Assay II; COS-7/AMY3 cells, cAMP dynamic 2 kit, 30 min; read-out: Amylin Receptor cAMP Stimulation Activity: EC50
T1 construct: expressed in transfected cells; host or cells: COS-7
How it was run: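 COS-7 cells stably co-expressing human CTR and RAMP3 (AMY3), 2000 cells/well in HBSS with 20 mM HEPES, 0.5 mM IBMX, 0.1% casein, stimulated with compound for 30 min at 37 °C. cAMP measured by HTRF (665/615 nm), activity normalized between vehicle and maximal control.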

[2] = target: T2, human calcitonin receptor (CTR) (Homo sapiens, UniProt P30988); test: Calcitonin Receptor (CTR) cAMP Assay; format: cell-based; settings: COS7-human CTR Clone #2 stable cell line, cAMP dynamic 2 kit, 30 min; read-out: Calcitonin Receptor cAMP Stimulation Activity: EC50
T2 construct: expressed in transfected cells; host or cells: COS-7 (COS7-human CTR Clone #2)
T2 sequence (P30988 25-474): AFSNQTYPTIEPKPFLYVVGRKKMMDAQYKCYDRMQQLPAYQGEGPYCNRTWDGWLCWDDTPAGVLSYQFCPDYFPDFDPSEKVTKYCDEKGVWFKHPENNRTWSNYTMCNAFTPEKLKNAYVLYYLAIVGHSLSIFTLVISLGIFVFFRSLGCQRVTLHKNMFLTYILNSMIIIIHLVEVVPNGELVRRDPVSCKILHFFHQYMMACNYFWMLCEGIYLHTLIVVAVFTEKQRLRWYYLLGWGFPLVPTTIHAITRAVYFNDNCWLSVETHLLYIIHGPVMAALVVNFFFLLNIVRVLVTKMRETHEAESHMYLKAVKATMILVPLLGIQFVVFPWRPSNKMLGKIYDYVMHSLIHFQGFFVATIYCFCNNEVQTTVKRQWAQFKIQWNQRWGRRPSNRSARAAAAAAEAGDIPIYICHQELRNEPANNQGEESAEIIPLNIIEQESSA
How it was run: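 COS-7 cells stably expressing human CTR (2000 cells/well) were incubated 30 min at 37 °C with 4-fold serially diluted compound in HBSS/20 mM HEPES/0.5 mM IBMX/0.1% casein. cAMP was detected by HTRF (665/615 nm) after 1 h at RT. % activity was normalised to vehicle and positive controls.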

T1 sequence (O60896 24-148, one chain of several): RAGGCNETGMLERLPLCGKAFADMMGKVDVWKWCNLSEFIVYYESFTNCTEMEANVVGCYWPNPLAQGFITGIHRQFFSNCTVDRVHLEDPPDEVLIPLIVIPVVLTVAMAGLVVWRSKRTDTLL

| SMILES | pEC50 [1] | pEC50 [2] |
| --- | --- | --- |
| O=C1c2c(nc(CCc3ccc(F)cc3)c(-c3n[nH]c(=O)o3)c2-c2cc3ccnc(Cc4coc5ccccc45)c3s2)[C@@H]2CCCN12 [Compound 248, (S)-5-(4-(7-(benzofuran-3-ylmethyl)thieno[2,3-c]pyridin-2-yl)-2-(4-fluorophenethyl)-5-oxo-7,8,9,9a-tetrahydro-5H-pyrido[2,3-a]pyrrolizin-3-yl)-1,3,4-oxadiazol-2(3H)-one] | 5.38 | 6.99 |
| Cn1cc(Cc2nccc3cc(-c4c5c(nc(CCc6ccc(F)cc6)c4-c4n[nH]c(=O)o4)[C@@H]4CCCN4C5=O)sc23)c2ccccc21 [Compound 249, (S)-5-(2-(4-fluorophenethyl)-4-(7-((1-methyl-1H-indol-3-yl)methyl)thieno[2,3-c]pyridin-2-yl)-5-oxo-7,8,9,9a-tetrahydro-5H-pyrido[2,3-a]pyrrolizin-3-yl)-1,3,4-oxadiazol-2(3H)-one] | 4.20 | 6.07 |
| COc1cccc2c1CC[C@H]2Nc1nccc2cc(-c3c4c(nc(C[C@@H]5CCc6cc(F)ccc65)c3-c3n[nH]c(=O)o3)[C@@H]3CCCN3C4=O)sc12 [Compound 250, 5-((S)-2-(((S)-5-fluoro-2,3-dihydro-1H-inden-1-yl)methyl)-4-(7-(((R)-4-methoxy-2,3-dihydro-1H-inden-1-yl)amino)thieno[2,3-c]pyridin-2-yl)-5-oxo-7,8,9,9a-tetrahydro-5H-pyrido[2,3-a]pyrrolizin-3-yl)-1,3,4-oxadiazol-2(3H)-one] | 6.99 | 8.35 |
| COc1cccc2c1CC(F)(F)[C@@H]2Nc1nccc2cc(-c3c4c(nc(CCc5ccc(F)cc5)c3-c3n[nH]c(=O)o3)[C@@H]3CCCN3C4=O)sc12 [Compound 251, 5-((S)-4-(7-(((R)-2,2-difluoro-4-methoxy-2,3-dihydro-1H-inden-1-yl)amino)thieno[2,3-c]pyridin-2-yl)-2-(4-fluorophenethyl)-5-oxo-7,8,9,9a-tetrahydro-5H-pyrido[2,3-a]pyrrolizin-3-yl)-1,3,4-oxadiazol-2(3H)-one] | 7.08 | 8.14 |
| CC(c1ccc(C#N)cn1)N1C(=O)C(C)(C)Oc2cc(-c3c4c(nc(CCc5ccc(F)cc5)c3-c3n[nH]c(=O)o3)[C@@H]3CCCN3C4=O)ccc21 (stereo partly drawn) [Compound 252, 6-(1-(7-((S)-2-(4-fluorophenethyl)-5-oxo-3-(5-oxo-4,5-dihydro-1,3,4-oxadiazol-2-yl)-7,8,9,9a-tetrahydro-5H-pyrido[2,3-a]pyrrolizin-4-yl)-2,2-dimethyl-3-oxo-2H-benzo[b][1,4]oxazin-4(3H)-yl)ethyl)nicotinonitrile] | 6.61 | 8.10 |
| Cc1cc2cc(-c3c4c(nc(CCc5ccc(F)cc5)c3-c3n[nH]c(=O)o3)[C@@H]3CCCN3C4=O)sc2c(N[C@@H]2CCc3cc(F)c(F)cc32)n1 [Compound 253, 5-((S)-4-(7-(((R)-5,6-difluoro-2,3-dihydro-1H-inden-1-yl)amino)-5-methylthieno[2,3-c]pyridin-2-yl)-2-(4-fluorophenethyl)-5-oxo-7,8,9,9a-tetrahydro-5H-pyrido[2,3-a]pyrrolizin-3-yl)-1,3,4-oxadiazol-2(3H)-one] | 8.73 | 10.15 |
| Cc1cc2cc(-c3c4c(nc(CCc5ccc(F)cc5)c3-c3n[nH]c(=O)o3)[C@@H]3COCCN3C4=O)sc2c(N[C@@H]2CCc3cc(F)c(F)cc32)n1 [Compound 254, (R)-4-(7-(((R)-5,6-difluoro-2,3-dihydro-1H-inden-1-yl)amino)-5-methylthieno[2,3-c]pyridin-2-yl)-2-(4-fluorophenethyl)-3-(5-oxo-4,5-dihydro-1,3,4-oxadiazol-2-yl)-7,8,10,10a-tetrahydro-5H-pyrido[2′,3′:3,4]pyrrolo[2,1-c][1,4]oxazin-5-one] | 9.15 | 10.18 |
| Cc1cc2cc(-c3c4c(nc(CCc5ccc(F)cc5)c3-c3n[nH]c(=O)o3)C35CC(CN3C4=O)C5)sc2c(N[C@@H]2CCc3cc(F)c(F)cc32)n1 [Compound 255, (R)-5-(4-(7-((5,6-difluoro-2,3-dihydro-1H-inden-1-yl)amino)-5-methylthieno[2,3-c]pyridin-2-yl)-2-(4-fluorophenethyl)-5-oxo-8,9-dihydro-5H,7H-8,9a-methanopyrido[2,3-a]pyrrolizin-3-yl)-1,3,4-oxadiazol-2(3H)-one] | 9.50 | 10.90 |
| COc1c(Cl)cc2c(c1F)CC[C@H]2Nc1nccc2cc(-c3c4c(nc(CCc5ccc(F)cc5)c3-c3n[nH]c(=O)o3)[C@@H]3CCCN3C4=O)sc12 [Compound 256, 5-[(9aS)-4-[7-[[(1R)-6-chloro-4-fluoro-5-methoxy-indan-1-yl]amino]thieno[2,3-c]pyridin-2-yl]-2-[2-(4-fluorophenyl)ethyl]-5-oxo-7,8,9,9a-tetrahydropyrido[2,3-a]pyrrolizin-3-yl]-3H-1,3,4-oxadiazol-2-one] | 7.89 | 9.48 |
| COc1cc2c(cc1F)[C@H](Nc1nccc3cc(-c4c5c(nc(CCc6ccc(F)cc6)c4-c4n[nH]c(=O)o4)[C@@H]4CCCN4C5=O)sc13)CC2 [Compound 257, 5-((S)-4-(7-(((R)-6-fluoro-5-methoxy-2,3-dihydro-1H-inden-1-yl)amino)thieno[2,3-c]pyridin-2-yl)-2-(4-fluorophenethyl)-5-oxo-7,8,9,9a-tetrahydro-5H-pyrido[2,3-a]pyrrolizin-3-yl)-1,3,4-oxadiazol-2(3H)-one] | 7.99 | 9.16 |
| COc1cc(F)cc2c1CC[C@H]2Nc1nccc2cc(-c3c4c(nc(CCc5ccc(F)cc5)c3-c3n[nH]c(=O)o3)[C@@H]3CCCN3C4=O)sc12 [Compound 258, 5-((S)-4-(7-(((R)-6-fluoro-4-methoxy-2,3-dihydro-1H-inden-1-yl)amino)thieno[2,3-c]pyridin-2-yl)-2-(4-fluorophenethyl)-5-oxo-7,8,9,9a-tetrahydro-5H-pyrido[2,3-a]pyrrolizin-3-yl)-1,3,4-oxadiazol-2(3H)-one] | 8.72 | 9.77 |
| O=C1c2c(nc(CCc3ccc(F)cc3)c(-c3n[nH]c(=O)o3)c2-c2cc3ccnc(N[C@@H]4CCOc5c(F)cc(F)cc54)c3s2)[C@@H]2CCCN12 [Compound 259, 5-((S)-4-(7-(((R)-6,8-difluorochroman-4-yl)amino)thieno[2,3-c]pyridin-2-yl)-2-(4-fluorophenethyl)-5-oxo-7,8,9,9a-tetrahydro-5H-pyrido[2,3-a]pyrrolizin-3-yl)-1,3,4-oxadiazol-2(3H)-one] | 8.82 | 9.82 |
| COc1c(F)ccc2c1C[C@@H](F)[C@H]2Nc1nccc2cc(-c3c4c(nc(CCc5ccc(F)cc5)c3-c3n[nH]c(=O)o3)[C@@H]3CCCN3C4=O)sc12 [Compound 260, 5-((S)-4-(7-(((1S,2R)-2,5-difluoro-4-methoxy-2,3-dihydro-1H-inden-1-yl)amino)thieno[2,3-c]pyridin-2-yl)-2-(4-fluorophenethyl)-5-oxo-7,8,9,9a-tetrahydro-5H-pyrido[2,3-a]pyrrolizin-3-yl)-1,3,4-oxadiazol-2(3H)-one] | 8.91 | 10.28 |
| COc1c(F)ccc2c1C[C@H](F)[C@H]2Nc1nccc2cc(-c3c4c(nc(CCc5ccc(F)cc5)c3-c3n[nH]c(=O)o3)[C@@H]3CCCN3C4=O)sc12 [Compound 261, 5-((S)-4-(7-(((1S,2S)-2,5-difluoro-4-methoxy-2,3-dihydro-1H-inden-1-yl)amino)thieno[2,3-c]pyridin-2-yl)-2-(4-fluorophenethyl)-5-oxo-7,8,9,9a-tetrahydro-5H-pyrido[2,3-a]pyrrolizin-3-yl)-1,3,4-oxadiazol-2(3H)-one] | 8.20 | 9.09 |
| COc1c(F)ccc2c1CC[C@H]2Nc1nccc2cc(-c3c4c(nc(CCc5ccc(F)cc5)c3-c3n[nH]c(=O)o3)[C@@H]3COCCN3C4=O)sc12 [Compound 262, (R)-4-(7-(((R)-5-fluoro-4-methoxy-2,3-dihydro-1H-inden-1-yl)amino)thieno[2,3-c]pyridin-2-yl)-2-(4-fluorophenethyl)-3-(5-oxo-4,5-dihydro-1,3,4-oxadiazol-2-yl)-7,8,10,10a-tetrahydro-5H-pyrido[2′,3′:3,4]pyrrolo[2,1-c][1,4]oxazin-5-one] | 8.55 | 10.02 |
| COc1c(F)ccc2c1CC[C@H]2Nc1nc(C)cc2cc(-c3c4c(nc(CCc5ccc(F)cc5)c3-c3n[nH]c(=O)o3)[C@@H]3COCCN3C4=O)sc12 [Compound 263, (R)-4-(7-(((R)-5-fluoro-4-methoxy-2,3-dihydro-1H-inden-1-yl)amino)-5-methylthieno[2,3-c]pyridin-2-yl)-2-(4-fluorophenethyl)-3-(5-oxo-4,5-dihydro-1,3,4-oxadiazol-2-yl)-7,8,10,10a-tetrahydro-5H-pyrido[2′,3′:3,4]pyrrolo[2,1-c][1,4]oxazin-5-one] | 9.20 | 10.47 |
